US6458387B1, “Sustained release microspheres” (priority 1999, dated 2002)

How the values were obtained:
[1] = HSA microspheres, carbonyl diimidazole coupling
Experimental: Carbonyl diimidazole (100 mg, Sigma Chemical Co., St. Louis, Mo.) was added to a solution of 36 mg of the antiviral drug Virazole Registered TM (ICN Pharmaceuticals, Inc., Costa Mesa, Calif.) in 0.2 ml of dimethylformamide (DMF). The resulting mixture was allowed to stand at room temperature for four hours. To the mixture was added a mixture of 0.2 ml of human serum albumin (HSA) (25%, Armour Pharmaceutical Co., Collegeville, Pa.) and 0.4 ml of deionized water. The mixture was incubated for 30 minutes at room temperature, for 30 minutes at 37° C., and for 30 minutes at 58° C. and then cooled to room temperature. Particles were isolated by centrifugation, washed with deionized water three times and resuspended in 20 ml of water.

[2] = In vitro release from leuprolide acetate/HSA microspheres (Example 5); assay type: physicochemical; details: leuprolide acetate/HSA/dextran sulfate/PEG/PVP microspheres
Experimental: A 0.010 mL aliquot of a solution of 10-100 mg/mL leuprolide acetate in water (LHRH, TAP Pharmaceuticals, Deerfield, Ill.) was added to 0.168 mL of a 2-10% (weight/volume) solution of dextran sulfate in water (average molecular weight 500 kDa), and the solution was thoroughly mixed. To the leuprolide/dextran solution was added a 0.856 niL aliquot of a solution containing 25% (weight/volume) polyethylene glycol, having an average molecular weight of 3.35 kDa (Spectrum, Gardena, Calif.), and 25% (weight/volume) polyvinylpyrrolidone, having an average molecular weight of 40 kDa, in an aqueous solution of 0.1M sodium acetate, pH 5.5. The resulting solution was thoroughly mixed and allowed to stand for up to 30 minutes. A 0.25 mL aliquot of a 20% (weight/volume) solution of human serum albumin (Sigma Chemical Co., St. Louis, Mo.) in water was then added to the solution. The final solution was thoroughly mixed and placed in a water bath at between 70° C. and 90° C. for a period of time between 30 minutes and 3 hours.
In vitro release of leuprolide acetate was measured by centrifugation of microspheres and resuspension in a phosphate buffered saline release medium.

[3] = set-up: species or system dogs; details: dog
Experimental: The microspheres were formed and precipitated from solution. […] Estradiol was then loaded into human serum albumin microspheres at 3 different weight percent loadings. The estradiol was dissolved in ethyl alcohol and incubated in the presence of the albumin microspheres. […] The 10% by weight estradiol containing microspheres contained 1 mg of estradiol and 8.33 mg of Human Serum Albumin (HSA). The 49% by weight estradiol containing microspheres contained 8.15 mg of estradiol and 8.33 mg of HSA. The 77% by weight estradiol containing microspheres contained 27.68 mg of estradiol and 8.33 mg of HSA
The microspheres were injected into five dogs and the resulting serum concentrations were determined by radioimmuno assay for estradiol.

[4] = human serum albumin microspheres; 0.01M, 0.1M or 1M zinc sulfate
Experimental: Nafarelin acetate (Roche Laboratories, Nutley, N.J.) was dissolved in deionized water to produce a 10 mg/ml solution.
To 1 mg of nafarelin acetate was added 10 mg of the human serum albumin microspheres. The mixture was vortexed and mixed for 16 hours at 4° C. A 3M ammonium sulfate solution was added to the mixture to a final concentration of 0.5M and vortexed and mixed for 15 minutes at ambient temperature.
The mixtures were centrifuged, supernatant decanted and pellet resuspended in deionized water three times to wash the microspheres.

SMILES	percentage of drug incorporated into the particles [1]	effect of additive on release of protein and peptide from the microspheres [2]	also measured
CO[C@H]1/C=C/O[C@@]2(C)Oc3c(C)c(O)c4c(O)c(c(/C=N/N5CCN(C)CC5)c(O)c4c3C2=O)NC(=O)/C(C)=C\C=C\[C@H](C)[C@H](O)[C@@H](C)[C@@H](O)[C@@H](C)[C@H](OC(C)=O)[C@@H]1C [Rifampicin TM, 3-[4-methylpiperazinyliminomethyl] rifamycin]	greater than 6.8%		
NC(=O)c1ncn([C@@H]2O[C@H](CO)[C@@H](O)[C@H]2O)n1 [Virazole Registered TM]	10%		
CCCCCCCC(=O)O [caprylic acid]		retarded the release	
C[C@]12CC[C@@H]3c4ccc(O)cc4CC[C@H]3[C@@H]1CC[C@@H]2O [estradiol control, estradiol]			half life of estradiol in vivo [3]: shortest half life
O=S(=O)([O-])[O-].[Zn+2] [zinc sulfate]		retarded the release	effect of additive on rate of release of nafarelin acetate [4]: reduced the rate of release
